# Test results taken from publication PMC11763264, “Antibacterial and Antifungal Activities of Linear and Cyclic Peptides Containing Arginine, Tryptophan, and Diphenylalanine” (Antibiotics, 2025).
# Non-standard residues stand in square brackets, D forms with d. Residues, ends and D or L forms follow the SMILES beside them. Dip = N[C@H](C(=O)O)C(c1ccccc1)c1ccccc1
# Key:
# MRSA (ATCC BAA-1556) = assay: microbe, parasite or virus in culture; type: cell-based, Methicillin-Resistant Staphylococcus aureus
# Experimental: (§1) The antibacterial activity of all ten synthesized linear and cyclic peptides was evaluated against MRSA (ATCC BAA-1556), S. aureus (ATCC 29213), E. faecium (ATCC 700221), S. pneumoniae (ATCC 51938), E. faecalis (ATCC 29212), B. subtilis (ATCC-6633), K. pneumoniae (ATCC BAA-1705), P. aeruginosa (ATCC 27883), and E. coli (ATCC 25922). Meropenem and daptomycin were used as positive controls for this study. Certain peptides are marked as “NT” (not tested) against specific bacterial strains based on initial screening data. […] The MIC was determined by micro-broth dilution protocol, where the minimal concentrations were determined to be in wells with no visible bacterial growth.
# (§2) All bacterial experiments were carried out in a laminar flow hood (Labconco, Kansas City, MO, USA). The bacterial strains were cultured following the guidelines set by the Clinical Laboratory Standards Institute (CLSI). Antibacterial assays were performed using a standard microtiter dilution method as described in previous studies. The minimum inhibitory concentration (MIC) refers to the lowest peptide concentration that inhibits bacterial growth in wells with no visible bacterial growth. MIC was determined by micro-broth dilution. Bacteria were cultured overnight in 6 mL of Luria Broth (LB). A stock solution of the peptide was prepared in water and DMSO, and a test compound solution with a concentration of 256 µg/mL was made in LB. Meropenem, with a solubility of 8 mg/mL, was prepared as a stock solution at 4 mg/500 µL. An aliquot of the overnight bacteria culture was diluted in normal saline (NS, 1 mL) until achieving a 0.5 McFarland turbidity (1.5 × 10^8 bacterial cell CFU/mL). A 0.5 McFarland compared solution (60 µL) was added to Mueller Hinton Broth (MH) 8940 µL to generate a 1/150 dilution. A 200 µL test compound solution was added to the first well of a 96-well plate, and the remaining wells (2–12) were filled with 100 µL of MH media using a multi-channel pipette from a sterile reservoir. A concentration of […] of the tested peptides was prepared from a stock solution of the samples for testing in Muller−Hinton broth MH media. Peptides stock solution was dissolved in 5% DMSO in water, and the final concentration of DMSO in the first well of assay plate was 2.5% DMSO/H2O and diluted across the assay plate.
# (§3) A 100 µL sample from well 1 was pipetted into well 2, and the solution was mixed thoroughly by pipetting up and down. Next, 100 µL was transferred from well 2 to well 3, followed by thorough mixing. This 2-fold serial dilution process continued through well 11, with no additions made to well 12. The final 100 µL from well 11 was discarded. After completing the serial dilution, each well (1–12) contained 100 µL of solution. The bacterial culture in MH media was vortexed and transferred to a sterile reservoir, from which 100 µL was added to each well using a 12-channel pipette. (Note: The dilutions were further diluted upon adding the bacterial solution; for example, the concentration in well 1 started at […] after the addition of the bacterial culture.) The plates were incubated overnight at 37 °C for 24 h. All experiments were performed in triplicate and repeated twice, with controls consisting of bacteria in MH media and positive controls of daptomycin or meropenem.
# S. aureus (ATCC 29213) = assay: microbe, parasite or virus in culture; type: cell-based, Staphylococcus aureus
# Experimental: as §1, §2, §3
# E. faecium (ATCC 700221) = assay: microbe, parasite or virus in culture; type: cell-based, Enterococcus faecium
# Experimental: as §1, §2, §3
# [1] = test system: S. pneumoniae (ATCC 51938); assay: microbe, parasite or virus in culture; type: cell-based, Streptococcus pneumoniae
# Experimental: as §1, §2, §3
# E. faecalis (ATCC 29212) = assay: microbe, parasite or virus in culture; type: cell-based, Enterococcus faecalis
# Experimental: as §1, §2, §3
# B. subtilis (ATCC-6633) = assay: microbe, parasite or virus in culture; type: cell-based, Bacillus subtilis
# Experimental: as §1, §2, §3
# [2] = test system: K. pneumoniae (ATCC BAA-1705); assay: microbe, parasite or virus in culture; type: cell-based, Klebsiella pneumoniae
# Experimental: as §1, §2, §3
# [3] = test system: P. aeruginosa (ATCC 27883); assay: microbe, parasite or virus in culture; type: cell-based, Pseudomonas aeruginosa
# Experimental: as §1, §2, §3
# E. coli (ATCC 25922) = assay: microbe, parasite or virus in culture; type: cell-based, Escherichia coli
# Experimental: as §1, §2, §3
# C. albicans (ATCC 60193) = assay: microbe, parasite or virus in culture; type: cell-based, Candida albicans; conditions: ATCC 60193, 24 h
# Experimental: (§4) The antifungal activity of all ten synthesized linear and cyclic peptides was evaluated against C. albicans (ATCC 60193), C. parapsilosis (ATCC 22019), and A. fumigatus (AF-293). Fluconazole and amphotericin B were used as positive controls for this study. The MIC was determined at concentrations in wells with no visible fungal growth.
# (§5) In this study, C. albicans and C. parapsilosis were cultured on Yeast Peptone Dextrose (YPD) agar containing 1% w/v yeast extract, 2% w/v peptone, 2% w/v D-glucose, and 1.5% agar. A single colony from the agar was selected and cultured in Tryptone soy broth supplemented with 0.1% D-glucose, then incubated for 24 h at 37 °C. The cells were washed twice with PBS by centrifugation at 2000 RPM for 5 min. The pellet was resuspended in 5 mL of PBS, diluted in RPMI 1640 with L-glutamine, supplemented with 2% D-glucose, and the pH adjusted using HEPES buffer. The suspension was then incubated for 50 min at 35 °C to achieve a final cell concentration of 10^6 cells/mL.
# (§6) Peptide concentrations of 50, 25, 12.5, 6.25, and 3.1 μg/mL were tested in triplicate and repeated twice. Each well of a 96-well plate was inoculated with the prepared inoculum suspension, which was diluted with RPMI media to a final volume of 200 μL per well. The control well received the same inoculum without any compound. The plates were incubated for 24 h at 37 °C. Fungal and microbial growth were visually observed in the control wells, and the minimum inhibitory concentration (MIC) was determined as the lowest concentration at which no growth was detected in the wells. Amphotericin B was used as a standard antifungal drug.
# [4] = test system: C. parapsilosis (ATCC 22019); assay: microbe, parasite or virus in culture; type: cell-based, Candida parapsilosis; conditions: ATCC 22019, 24 h
# Experimental: as §4, §5, §6
# MRSA = conditions: previous work; cited from earlier work
# Description: We have previously reported the synthesis of [E4W4], [KR5], [F4R5], [Y4R4], and [R4W4] and tested them against bacterial pathogens.
Molecule,"MIC (MRSA (ATCC BAA-1556); ATCC BAA-1556, 24 h)","MIC (S. aureus (ATCC 29213); ATCC 29213, 24 h)","MIC (E. faecium (ATCC 700221); ATCC 700221, 24 h)","MIC ([1]; ATCC 51938, 24 h)","MIC (E. faecalis (ATCC 29212); ATCC 29212, 24 h)","MIC (B. subtilis (ATCC-6633); ATCC-6633, 24 h)","MIC ([2]; ATCC BAA-1705, 24 h)","MIC ([3]; ATCC 27883, 24 h)","MIC (E. coli (ATCC 25922); ATCC 25922, 24 h)",MIC (C. albicans (ATCC 60193)),MIC [4],also measured
N=C(N)NCCC[C@H](NC(=O)[C@@H](NC(=O)[C@H](CCCNC(=N)N)NC(=O)[C@@H](NC(=O)[C@H](CCCNC(=N)N)NC(=O)[C@H](Cc1c[nH]c2ccccc12)NC(=O)[C@H](CCCNC(=N)N)NC(=O)[C@H](Cc1c[nH]c2ccccc12)NC(=O)[C@H](CCCNC(=N)N)NC(=O)[C@@H](N)Cc1c[nH]c2ccccc12)C(c1ccccc1)c1ccccc1)C(c1ccccc1)c1ccccc1)C(=O)O [((DipR)2(WR)3)] (H-WRWRWR[Dip]R[Dip]R-OH),3.1 µM,3.1 µM,3.1 µM,0.78 µM,6.3 µM,1.6 µM,12.5 µM,12.5 µM,6.3 µM,3.5 µM,6.9 µM,
N=C(N)NCCC[C@H](NC(=O)[C@H](CCCNC(=N)N)NC(=O)[C@@H](NC(=O)[C@H](CCCNC(=N)N)NC(=O)[C@@H](NC(=O)[C@H](CCCNC(=N)N)NC(=O)[C@@H](NC(=O)[C@H](CCCNC(=N)N)NC(=O)[C@@H](N)C(c1ccccc1)c1ccccc1)C(c1ccccc1)c1ccccc1)C(c1ccccc1)c1ccccc1)C(c1ccccc1)c1ccccc1)C(=O)O [(DipR)4R] (H-[Dip]R[Dip]R[Dip]R[Dip]RR-OH),1.6 µM,1.6 µM,1.6 µM,0.39 µM,3.1 µM,1.6 µM,6.3 µM,12.5 µM,6.3 µM,7.4 µM,7.4 µM,
[R4W4],,,,,,,,,,,,MIC against MRSA (MRSA): 2.67 µg/mL
N=C(N)NCCC[C@H](NC(=O)[C@@H](NC(=O)[C@H](CCCNC(=N)N)NC(=O)[C@@H](NC(=O)[C@H](CCCNC(=N)N)NC(=O)[C@@H](NC(=O)[C@H](CCCNC(=N)N)NC(=O)[C@@H](NC(=O)[C@H](CCCNC(=N)N)NC(=O)[C@@H](N)Cc1c[nH]c2ccccc12)C(c1ccccc1)c1ccccc1)C(c1ccccc1)c1ccccc1)C(c1ccccc1)c1ccccc1)C(c1ccccc1)c1ccccc1)C(=O)O [((DipR)4(WR))] (H-WR[Dip]R[Dip]R[Dip]R[Dip]R-OH),3.1 µM,3.1 µM,1.6 µM,0.78 µM,1.6 µM,12.5 µM,25 µM,25 µM,12.5 µM,6.6 µM,6.6 µM,
N=C(N)NCCC[C@H](NC(=O)[C@@H](NC(=O)[C@H](CCCNC(=N)N)NC(=O)[C@@H](NC(=O)[C@H](CCCNC(=N)N)NC(=O)[C@@H](NC(=O)[C@H](CCCNC(=N)N)NC(=O)[C@H](Cc1c[nH]c2ccccc12)NC(=O)[C@H](CCCNC(=N)N)NC(=O)[C@@H](N)Cc1c[nH]c2ccccc12)C(c1ccccc1)c1ccccc1)C(c1ccccc1)c1ccccc1)C(c1ccccc1)c1ccccc1)C(=O)O [((DipR)3(WR)2)] (H-WRWR[Dip]R[Dip]R[Dip]R-OH),3.1 µM,3.1 µM,3.1 µM,0.78 µM,3.1 µM,3.1 µM,25 µM,25 µM,12.5 µM,3.4 µM,6.8 µM,
"C[C@@H](O)[C@H]1C(=O)N2C(C(=O)O)=C(S[C@@H]3CN[C@H](C(=O)N(C)C)C3)[C@H](C)[C@H]12 [Meropenem, reference compound]",,,,,,,,,,,,"MIC (MRSA (ATCC BAA-1556); Staphylococcus aureus, micro-broth dilution, Mueller Hinton broth, 37 °C, 24 h, no visible growth, triplicate, repeated twice): 5.2 µM; MIC (S. aureus (ATCC 29213); Staphylococcus aureus, ATCC29213, micro-broth dilution, Mueller Hinton broth, 37 °C, 24 h, no visible growth, triplicate, repeated twice): 0.5 µM; MIC (E. faecium (ATCC 700221); Enterococcus faecium, ATCC700221, micro-broth dilution, Mueller Hinton broth, 37 °C, 24 h, no visible growth, triplicate, repeated twice): 83 µM; MIC ([1]; Streptococcus pneumoniae, ATCC51938, micro-broth dilution, Mueller Hinton broth, 37 °C, 24 h, no visible growth, triplicate, repeated twice): 0.6 µM; MIC (E. faecalis (ATCC 29212); Enterococcus faecalis, ATCC29212, micro-broth dilution, Mueller Hinton broth, 37 °C, 24 h, no visible growth, triplicate, repeated twice): 5.2 µM; MIC (B. subtilis (ATCC-6633); Bacillus subtilis, ATCC6633, micro-broth dilution, Mueller Hinton broth, 37 °C, 24 h, no visible growth, triplicate, repeated twice): 0.6 µM; MIC ([2]; Klebsiella pneumoniae, ATCCBAA1705, micro-broth dilution, Mueller Hinton broth, 37 °C, 24 h, no visible growth, triplicate, repeated twice, NA = Not active): 42 µM; MIC ([3]; Pseudomonas aeruginosa, ATCC27883, micro-broth dilution, Mueller Hinton broth, 37 °C, 24 h, no visible growth, triplicate, repeated twice, NA = Not active): 2.6 µM; MIC (E. coli (ATCC 25922); Escherichia coli, ATCC25922, micro-broth dilution, Mueller Hinton broth, 37 °C, 24 h, no visible growth, triplicate, repeated twice, NA = Not active): 2.6 µM"
N=C(N)NCCC[C@H](NC(=O)[C@@H](NC(=O)[C@H](CCCNC(=N)N)NC(=O)[C@H](Cc1c[nH]c2ccccc12)NC(=O)[C@H](CCCNC(=N)N)NC(=O)[C@H](Cc1c[nH]c2ccccc12)NC(=O)[C@H](CCCNC(=N)N)NC(=O)[C@H](Cc1c[nH]c2ccccc12)NC(=O)[C@H](CCCNC(=N)N)NC(=O)[C@@H](N)Cc1c[nH]c2ccccc12)C(c1ccccc1)c1ccccc1)C(=O)O [((DipR)(WR)4)] (H-WRWRWRWR[Dip]R-OH),6.3 µM,6.3 µM,3.1 µM,0.78 µM,12.5 µM,3.1 µM,12.5 µM,25 µM,12.5 µM,28.2 µM,14.1 µM,
